One data set has as its system Echinochloa crus-galli. The experiment in a line: Paddy pot test, herbicidal effect on Echinochloa crus-galli. It counts as in vivo. Also on record: scale not given here. The settings on record: Screening, 63 g/ha, applied at 1.5-leaf stage, examined after 3 weeks. As to the method: (§1) Plastic pots having an area of 100 cm^2 and a depth of 10 cm were filled with paddy soil which is puddled by adding water, and seeds of Echinochloa crus-galli and Scirpus juncoides were planted in the pots. After seeding, rice plants at the 2.5-leaf stage were transplanted and the pots were filled with water. The rice plants were grown in a greenhouse. […] The herbicidal effects and harmful effects on the rice plants were examined after 3 weeks. Herbicidal effects were examined according to the examination criteria described below and were represented by the herbicidal index. [table] […] [formula]

A further data set deals with Scirpus juncoides. Put plainly: Paddy pot test, herbicidal effect on Scirpus juncoides. It is filed as in vivo. Further details: scale not given here. The following applies: Screening, 63 g/ha, examined after 3 weeks. The protocol:
as §1

Another data set has as its system rice plants. Put plainly: Paddy pot test, harmful effects on transplanted rice plants. Also on record: scale not given here. It counts as in vivo. The following applies: Screening, 63 g/ha, applied at Echinochloa crus-galli 1.5-leaf stage, examined after 3 weeks. As to the method: as §1

What is called melting point is the temperature of the solid-liquid transition. As to `Cc1ccc(C(=O)c2c(C)nn(C)c2O)c(C)c1N=S1(=O)CCCCC1` [Example 109], the melting point was 122 to 124 °C. The “Echinochloa crus-galli (herbicidal index)” value with Echinochloa crus-galli is 7. In the data set on Scirpus juncoides, the “Scripus juncoides (herbicidal index)” value was determined as 8. For the same molecule, the “Rice (harmful effects on the rice plants, index)” value with rice plants worked out at 0.
`COc1ccc(C(=O)c2cnn(C)c2O)c(F)c1N=S1(=O)CCCCC1` [Example 112] showed a melting point of 107 to 109 °C. In addition, the “Echinochloa crus-galli (herbicidal index)” value in the data set with Echinochloa crus-galli was 8. Besides, the “Scripus juncoides (herbicidal index)” value with Scirpus juncoides is 8. In addition, the “Rice (harmful effects on the rice plants, index)” value in the data set on rice plants is 0.
Regarding `COc1ccc(C(=O)c2cnn(C)c2[O-])c(Cl)c1N=S1(=O)CCCCC1.[Na+]` [Example 115], the melting point lay in the range of 224 to 226 °C. In addition, the “Echinochloa crus-galli (herbicidal index)” value with Echinochloa crus-galli came out at 10. The “Scripus juncoides (herbicidal index)” value in the data set with Scirpus juncoides is 8. In addition, the “Rice (harmful effects on the rice plants, index)” value in the data set with rice plants is recorded as 0.
Regarding `C#CCOc1c(C(=O)c2ccc(OC)c(N=S3(=O)CCCCC3)c2Cl)cnn1C` [Example 123], the melting point is 146 to 148 °C. In the data set on Echinochloa crus-galli, the “Echinochloa crus-galli (herbicidal index)” value stood at 7. In addition, in the data set on Scirpus juncoides, the “Scripus juncoides (herbicidal index)” value came out at 5. For the same molecule, in the data set on rice plants, the “Rice (harmful effects on the rice plants, index)” value was found to be 0.
In the same order, the values of `COc1ccc(C(=O)c2cnn(C)c2O)c(Cl)c1N=S1(=O)CCCC1` [Example 126] are 134 to 136 °C, 10, 8 and 0.
Turning to `COc1ccc(C(=O)C2=C(O)CCCC2=O)c(Cl)c1N=S1(=O)CCCC1` [Example 127], the melting point was in the range of 153 to 155 °C. Moreover, the “Echinochloa crus-galli (herbicidal index)” value with Echinochloa crus-galli is 8. In addition, in the data set on Scirpus juncoides, the “Scripus juncoides (herbicidal index)” value stood at 8. Besides, the “Rice (harmful effects on the rice plants, index)” value with rice plants was determined as 0.
Molecule `CCn1ncc(C(=O)c2ccc(OC)c(N=S3(=O)CCCC3)c2Cl)c1O` [Example 128] registered a melting point of 171 to 173 °C. Further, the “Echinochloa crus-galli (herbicidal index)” value in the data set with Echinochloa crus-galli was found to be 10. Moreover, the “Scripus juncoides (herbicidal index)” value in the data set with Scirpus juncoides is 8. Moreover, in the data set with rice plants, the “Rice (harmful effects on the rice plants, index)” value came to 0.
Taken in the same sequence, the figures for `COc1c(N=S2(=O)CCCCC2)cccc1C(=O)c1cnn(C)c1O` [Example 131] were 121 to 123 °C, 6, 8 and 0.
Taken in the same sequence, the figures for `COc1ccc(C(=O)c2cnn(C)c2O)c(OC)c1N=S1(=O)CCOCC1` [Example 133] were 72 to 74 °C, 6, 7 and 0.
Taken in the same sequence, the figures for `COc1c(C(=O)c2cnn(C)c2O)ccc(C)c1N=S1(=O)CCCCC1` [Example 135] were 85 to 87 °C, 5, 7 and 0.
In turn, `COc1ccc(C(=O)c2cnn(C)c2OC(=O)c2ccc([N+](=O)[O-])cc2)c(Cl)c1N=S1(=O)CCCCC1` [Example 139] showed a melting point of 151 to 154 °C. In addition, the “Echinochloa crus-galli (herbicidal index)” value in the data set on Echinochloa crus-galli is listed as 10. Moreover, in the data set with Scirpus juncoides, the “Scripus juncoides (herbicidal index)” value was found to be 8. In the data set on rice plants, the “Rice (harmful effects on the rice plants, index)” value was determined as 0.
`COc1ccc(C(=O)c2cnn(C)c2OCc2ccc3ccccc3c2)c(Cl)c1N=S(C)(C)=O` [Example 151]: the “Echinochloa crus-galli (herbicidal index)” value in the data set with Echinochloa crus-galli was determined as 6. Also, the “Scripus juncoides (herbicidal index)” value in the data set on Scirpus juncoides is reported as 5. In addition, the “Rice (harmful effects on the rice plants, index)” value with rice plants is listed as 0.
On to `COC(=O)c1ccc(C(=O)c2cnn(C)c2OC(=O)SC)c(Cl)c1N=S1(=O)CCCCC1` [Example 152], for which, in the data set with Echinochloa crus-galli, the “Echinochloa crus-galli (herbicidal index)” value is given as 10. For the same molecule, the “Scripus juncoides (herbicidal index)” value with Scirpus juncoides amounted to 8. Moreover, the “Rice (harmful effects on the rice plants, index)” value with rice plants came out at 0.
As for `COC(=O)c1ccc(C(=O)c2cn(C(=O)SC)n(C)c2=O)c(Cl)c1N=S1(=O)CCCCC1` [Example 153], in the data set on Echinochloa crus-galli, the “Echinochloa crus-galli (herbicidal index)” value is 7. Besides, the “Scripus juncoides (herbicidal index)” value in the data set on Scirpus juncoides came to 8. The “Rice (harmful effects on the rice plants, index)” value in the data set on rice plants was 0.
Take `COc1ccc(C(=O)c2cn(C(=O)SC)n(C)c2=O)c(Cl)c1N=S1(=O)CCCCC1` [Example 155]: in the data set on Echinochloa crus-galli, the “Echinochloa crus-galli (herbicidal index)” value is reported as 8. Further, in the data set with Scirpus juncoides, the “Scripus juncoides (herbicidal index)” value is 8. Also, the “Rice (harmful effects on the rice plants, index)” value with rice plants came out at 0.
Regarding `CCS(=O)(CC)=Nc1c(C)ccc(C(=O)C2=C(O)CCCC2=O)c1C` [Example 158], in the data set with Echinochloa crus-galli, the “Echinochloa crus-galli (herbicidal index)” value was 5. In the data set with Scirpus juncoides, the “Scripus juncoides (herbicidal index)” value came to 5. Also, the “Rice (harmful effects on the rice plants, index)” value with rice plants is on record as 0.
As to `COC(=O)c1ccc(C(=O)C(C#N)C(=O)C2CC2)c(Cl)c1N=S1(=O)CCCCC1` (centres unmarked) [Example 165], the “Echinochloa crus-galli (herbicidal index)” value in the data set on Echinochloa crus-galli was 5. In addition, the “Scripus juncoides (herbicidal index)” value with Scirpus juncoides is 8. Also, the “Rice (harmful effects on the rice plants, index)” value in the data set on rice plants turned out to be 0.
In the same order, the values of `C#Cc1ccc(C(=O)c2cnn(C)c2O)c(Cl)c1N=S1(=O)CCCCC1` [Example 166] are 6, 8 and 0.
Turning to `C#Cc1ccc(C(=O)C2=C(O)CCCC2=O)c(Cl)c1N=S1(=O)CCCCC1` [Example 173], in the data set on Echinochloa crus-galli, the “Echinochloa crus-galli (herbicidal index)” value turned out to be 5. Also, the “Scripus juncoides (herbicidal index)” value with Scirpus juncoides amounted to 7. In the data set with rice plants, the “Rice (harmful effects on the rice plants, index)” value worked out at 0.
In the same order, the values of `CCOc1ccc(C(=O)c2cnn(C)c2OC(=O)SC)c(OC)c1N=S1(=O)CCCCC1` [Example 177] are 5, 7 and 0.
Consider `Cn1ncc(C(=O)c2ccc(OC(F)F)c(N=S3(=O)CCCCC3)c2Cl)c1OCc1ccc2ccccc2c1` [Example 182], for which the “Echinochloa crus-galli (herbicidal index)” value with Echinochloa crus-galli is given as 10. Besides, the “Scripus juncoides (herbicidal index)” value with Scirpus juncoides was found to be 7. In addition, the “Rice (harmful effects on the rice plants, index)” value in the data set with rice plants is 0.
In the same order, the values of `COc1ccc(C(=O)c2cnn(C)c2OC(=O)SC)c(OC)c1N=S1(=O)CCCCC1` [Example 183] are 7, 6 and 0.
Take `CSC(=O)Oc1c(C(=O)c2ccc(OC(F)F)c(N=S3(=O)CCCCC3)c2Cl)cnn1C` [Example 185]: the “Echinochloa crus-galli (herbicidal index)” value in the data set on Echinochloa crus-galli is on record as 10. For the same molecule, the “Scripus juncoides (herbicidal index)” value in the data set with Scirpus juncoides is 7. For the same molecule, the “Rice (harmful effects on the rice plants, index)” value in the data set on rice plants is 0.
`CCc1ccc(C(=O)c2cnn(C)c2O)c(Cl)c1N=S1(=O)CCCCC1` [Example 188]: the “Echinochloa crus-galli (herbicidal index)” value in the data set with Echinochloa crus-galli is 10. In addition, the “Scripus juncoides (herbicidal index)” value in the data set with Scirpus juncoides is given as 7. In addition, in the data set with rice plants, the “Rice (harmful effects on the rice plants, index)” value is reported as 1.
Taken in the same sequence, the figures for `CSC(=O)Oc1c(C(=O)c2cccc(N=S3(=O)CCCCC3)c2Br)cnn1C` [Example 197] were 7, 7 and 0.
With `COC(=O)c1ccc(C(=O)c2cnn(C)c2OC(=O)SC(C)C)c(Cl)c1N=S1(=O)CCCCC1` [Example 201], the “Echinochloa crus-galli (herbicidal index)” value in the data set with Echinochloa crus-galli is 5. Also, the “Scripus juncoides (herbicidal index)” value in the data set with Scirpus juncoides is reported as 7. For the same molecule, the “Rice (harmful effects on the rice plants, index)” value in the data set on rice plants was 0.
Turning to `CCCSC(=O)Oc1c(C(=O)c2ccc(C(=O)OC)c(N=S3(=O)CCCCC3)c2Cl)cnn1C` [Example 202], the “Echinochloa crus-galli (herbicidal index)” value in the data set on Echinochloa crus-galli is listed as 7. Besides, the “Scripus juncoides (herbicidal index)” value with Scirpus juncoides came out at 7. Further, in the data set with rice plants, the “Rice (harmful effects on the rice plants, index)” value was 0.
With `COC(=O)c1ccc(C(=O)c2cnn(C)c2OC(=O)SC(C)(C)C)c(Cl)c1N=S1(=O)CCCCC1` [Example 203], in the data set with Echinochloa crus-galli, the “Echinochloa crus-galli (herbicidal index)” value was found to be 10. Further, the “Scripus juncoides (herbicidal index)” value with Scirpus juncoides amounted to 7. Besides, in the data set on rice plants, the “Rice (harmful effects on the rice plants, index)” value was 0.
In the same order, the values of `C=C(C)c1ccc(C(=O)c2cnn(C)c2O)c(Cl)c1N=S1(=O)CCCCC1` [Example 204] are 5, 7 and 0.
On to `C=C(C)c1ccc(C(=O)c2cnn(C)c2OC(=O)SC)c(Cl)c1N=S1(=O)CCCCC1` [Example 207], for which the “Echinochloa crus-galli (herbicidal index)” value in the data set on Echinochloa crus-galli is 6. For the same molecule, in the data set with Scirpus juncoides, the “Scripus juncoides (herbicidal index)” value was determined as 7. In the data set with rice plants, the “Rice (harmful effects on the rice plants, index)” value was 0.
Taken in the same sequence, the figures for `CC(C)c1ccc(C(=O)C2=C(O)CCCC2=O)c(Cl)c1N=S1(=O)CCCCC1` [Example 209] were 7, 6 and 0.
Taken in the same sequence, the figures for `COc1ccc(C(=O)c2cnn(C)c2OC(=O)SC)c(Cl)c1N=S(C)(=O)C(C)C` (centres unmarked) [Example 211] were 6, 8 and 0.
In the same order, the values of `CCS(=O)(CC)=Nc1c(OC)ccc(C(=O)c2cnn(C)c2OCc2ccc3ccccc3c2)c1Cl` [Example 248] are 5, 8 and 0.
With `COc1ccc(C(=O)c2c(C)nn(C)c2OCc2ccc3ccccc3c2)c(Cl)c1N=S1(=O)CCCCC1` [Example 253], in the data set on Echinochloa crus-galli, the “Echinochloa crus-galli (herbicidal index)” value worked out at 6. For the same molecule, the “Scripus juncoides (herbicidal index)” value in the data set with Scirpus juncoides came to 8. For the same molecule, the “Rice (harmful effects on the rice plants, index)” value with rice plants is reported as 0.
